Source: patent US10294202B2, “Pyrrolidinones as herbicides” (FMC Corporation, priority 2013, dated 2019)

Assays:
rice, transplanted = assay: Test F flood (paddy) test; format: in vivo, Oryza sativa cv. Japonica—M202; conditions: 21 d, scale 0-100
Text: Three plastic pots (ca. 16-cm diameter) per rate were partially filled with sterilized Tama silt loam soil comprising a 35:50:15 ratio of sand, silt and clay and 2.6% organic matter. Separate plantings for each of the three pots were as follows. Seeds from the U.S. of monochoria (Monochoria vaginalis), sedge, umbrella (small-flower umbrella sedge, Cyperus difformis), bulrush, […] bulrush, Scirpus juncoides), and […] (purple […] coccinea), were planted into one 16-cm pot for each rate. Seeds from the U.S. of flatsedge, rice (rice flatsedge, Cyperus iria), sprangletop, Brdd. (bearded sprangletop, Leptochloa fascicularis), one stand of 9 or 10 water seeded rice seedlings (Rice, W.S. Jap, Oryza sativa cv. 'Japonica-[…]' or Rice, W.S. Ind, 'Indica'), and two stands of 3 or 4 seedlings of rice, transplanted (transplanted rice, Oryza sativa cv. 'Japonica-[…]') were planted into one 16-cm pot for each rate. Seeds from the U.S. of barnyardgrass (Echinochloa crus-galli), […] (common […], Alisma plantago-aquatica), and watergrass, late (late watergrass, Echinochloa oryzicola) were planted into one 16-cm pot for each rate. Plantings were sequential so that crop and weed species were at the 2.0 to 2.5-leaf stage at time of treatment. Potted plants were grown in a greenhouse with day/night temperature settings of 30/27° C., and supplemental balanced lighting was provided to maintain a 16-h photoperiod. Test pots were maintained in the greenhouse until test completion. At time of treatment, test pots were flooded to 3 cm above the soil surface, treated by application of test compounds directly to the paddy water, and then maintained at that water depth for the duration of the test. Effects of treatments on rice and weeds were visually evaluated by comparison to untreated controls after 21 d. Plant response ratings, summarized in Table F, are based on a scale of 0 to 100 where 0 is no effect and 100 is complete control. A dash (-) response means no test result.

speedwell = assay: Test D pre-/postemergence herbicide test; format: in vivo, Veronica persica; conditions: for Plant response rating: Postemergence, Speedwell, scale 0 to 100; for Plant response rating, Speedwell: Preemergence, scale 0 to 100 (0 no effect, 100 complete control)
Text: Seeds of plant species selected from bluegrass (annual bluegrass, Poa annua), blackgrass (Alopecurus myosuroides), canarygrass (littleseed canarygrass, Phalaris minor), chickweed (common chickweed, Stellaria media), galium (catchweed bedstraw, Galium aparine), bromegrass, downy (downy bromegrass, Bromus tectorum), field poppy (Papaver rhoeas), field violet (Viola arvensis), foxtail, green (green foxtail, Setaria viridis), deadnettle (henbit deadnettle, Lamium amplexicaule), ryegrass, Italian (Italian ryegrass, Lolium multiflorum), kochia (Kochia scoparia), lambsquarters (Chenopodium album), oilseed rape (Brassica napus), pigweed (Amaranthus retroflexus), chamomile (scentless chamomile, Matricaria inodora), Russian thistle (Salsola kali), speedwell (bird's-eye speedwell, Veronica persica), barley, spring (spring barley, Hordeum vulgare), wheat, spring (spring wheat, Triticum aestivum), buckwheat, wild (wild buckwheat, Polygonum convolvulus), mustard, wild (wild mustard, Sinapis arvensis), oat, wild (wild oat, Avena fatua), radish, wild (wild radish, Raphanus raphanistrum), […]), barley, winter (winter barley, Hordeum vulgare), and wheat, winter (winter wheat, Triticum aestivum) were planted into a silt loam soil and treated preemergence with test chemicals formulated in a non-phytotoxic solvent mixture which included a surfactant. At the same time, these species were planted in pots containing Redi-Earth® planting medium (Scotts Company, 14111 Scottslawn Road, Marysville, Ohio 43041) comprising spaghnum peat moss, vermiculite, wetting agent and starter nutrients and treated with postemergence applications of the test chemicals formulated in the same manner. Plants ranged in height from 2 to 18 cm (1- to 4-leaf stage). Treated plants and controls were maintained in a controlled growth environment for 7 to 21 days after which time all species were compared to controls and visually evaluated. Plant response ratings, summarized in Table D, are based on a scale of 0 to 100 where 0 is no effect and 100 is complete control. A dash (-) response means no test result.

barley, spring = assay: Test D pre-/postemergence herbicide test; format: in vivo, Hordeum vulgare; conditions: for Plant response rating: Barley, Spring, scale 0 to 100; for Plant response rating, Barley, Spring: scale 0 to 100 (0 no effect, 100 complete control)
In short: (§1)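 Test chemicals, formulated in a non-phytotoxic solvent mixture with surfactant, are sprayed preemergence onto seeds in silt loam and postemergence onto plants of 2–18 cm. Plants are held in a controlled growth environment for 7 to 21 days, then rated visually versus controls (0–100).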

barley, winter = assay: Test D pre-/postemergence herbicide test; format: in vivo, Hordeum vulgare; conditions: for Plant response rating: Barley, Winter, scale 0 to 100; for Plant response rating, Barley, Winter: scale 0 to 100 (0 no effect, 100 complete control)
In short: as §1

SMILES	Plant response rating, Rice, Transplanted (rice, transplanted; 125 g ai/ha)	Plant response rating, Rice, Transplanted (rice, transplanted; 250 g ai/ha)	Plant response rating, Rice, Transplanted (rice, transplanted; 500 g ai/ha)	Plant response rating (speedwell; 31 g ai/ha)	Plant response rating (speedwell; 62 g ai/ha)	Plant response rating (speedwell; 125 g ai/ha)	Plant response rating (speedwell; 250 g ai/ha)	Plant response rating, Speedwell (speedwell; 62 g ai/ha)	Plant response rating, Speedwell (speedwell; 125 g ai/ha)	Plant response rating, Speedwell (speedwell; 31 g ai/ha)	Plant response rating, Speedwell (speedwell; 250 g ai/ha)	Plant response rating (barley, spring; Postemergence, 31 g ai/ha)	Plant response rating (barley, spring; Postemergence, 62 g ai/ha)	Plant response rating (barley, spring; Postemergence, 125 g ai/ha)	Plant response rating (barley, spring; Postemergence, 250 g ai/ha)	Plant response rating, Barley, Spring (barley, spring; Preemergence, 62 g ai/ha)	Plant response rating, Barley, Spring (barley, spring; Preemergence, 31 g ai/ha)	Plant response rating (barley, spring; Preemergence, 250 g ai/ha)	Plant response rating (barley, winter; Postemergence, 31 g ai/ha)	Plant response rating (barley, winter; Postemergence, 62 g ai/ha)	other results
O=C1NCC(c2ccc(F)c(F)c2)C1C(=O)Nc1cccc(F)c1F (racemic) [Compound 101]	0	0	0																		Plant response rating, Rice, Transplanted (rice, transplanted; 64 g ai/ha): 0
O=C1NCC(c2cccc(C(F)F)c2)C1C(=O)Nc1ccccc1F (racemic) [Compound 210]	0	0	0																		
O=C1NCCC1C(=O)N(c1ccc(F)c(F)c1)c1ccccc1F (stereo not shown) [Compound 5, N-(3,4-difluorophenyl)-N-(2-fluorophenyl)-2-oxo-3-pyrrolidinecarboxamide]	0	0	0																		Plant response rating, Rice, Transplanted (rice, transplanted; 1000 g ai/ha): 0; Plant response rating, Rice, Transplanted (rice, transplanted; 2000 g ai/ha): 0
O=C1NCC(c2ccc(Cl)c(F)c2)C1C(=O)Nc1cccc(F)c1F (stereo not shown) [Compound 52]				20	25	40	70	90	100	90	100	0	0	0	0	0	0	5	0	0	Plant response rating (speedwell; 16 g ai/ha): 20; Plant response rating, Speedwell (speedwell; 16 g ai/ha): 0; Plant response rating (barley, spring; Postemergence, 16 g ai/ha): 0; Plant response rating, Barley, Spring (barley, spring; Preemergence, 16 g ai/ha): 0; Plant response rating (barley, spring; Preemergence, 125 g ai/ha): 0; Plant response rating (barley, winter; Postemergence, 16 g ai/ha): 0; Plant response rating (barley, winter; Postemergence, 125 g ai/ha): 0; Plant response rating (barley, winter; Postemergence, 250 g ai/ha): 0; Plant response rating, Barley, Winter (barley, winter; Preemergence, 62 g ai/ha): 0; Plant response rating, Barley, Winter (barley, winter; Preemergence, 16 g ai/ha): 0; Plant response rating, Barley, Winter (barley, winter; Preemergence, 31 g ai/ha): 0; Plant response rating (barley, winter; Preemergence, 125 g ai/ha): 0; Plant response rating (barley, winter; Preemergence, 250 g ai/ha): 25
O=C1NCC(c2ccc(C(F)(F)F)cc2)C1C(=O)Nc1ccccc1F (stereo not shown) [Compound 231]				60	70	75	75	80	100	75	100	0	0	0	0	5	0	35	0	0	Plant response rating, Barley, Spring (barley, spring; Preemergence, 125 g ai/ha): 5; Plant response rating (barley, winter; Postemergence, 125 g ai/ha): 0; Plant response rating (barley, winter; Postemergence, 250 g ai/ha): 0; Plant response rating, Barley, Winter (barley, winter; Preemergence, 62 g ai/ha): 0; Plant response rating, Barley, Winter (barley, winter; Preemergence, 125 g ai/ha): 0; Plant response rating, Barley, Winter (barley, winter; Preemergence, 31 g ai/ha): 0; Plant response rating (barley, winter; Preemergence, 250 g ai/ha): 20
CN1CC(c2ccc(F)c(F)c2)C(C(=O)Nc2cccc(F)c2F)C1=O (stereo not shown) [Compound 303]	0	15	30																		Plant response rating, Rice, Transplanted (rice, transplanted; 62 g ai/ha): 0
